Values quoted from earlier work as cited in patent US20090004306A1, “Composition for treatment of diabetes and maintaining healthy blood glucose levels” (priority 2007, published 2009).

Experiments:
[1] = Kim study

In the case of `[Cr]` [chromium], the “glucose levels and related variables” value (people with glucose intolerance and type 1, type 2, gestational, and steroid-induced diabetes) is given as “improve glucose levels and related variables”.
In the case of `O=C/C=C/c1ccccc1` [cinnamaledhyde], the “hypoglycemic properties / blood glucose level” value [1] is listed as “exhibit hypoglycemic properties”.
In the case of chromium picolinate, the “insulin sensitivity and glycemic control” value (ample intakes, individuals and diabetics) is given as “promote insulin sensitivity in many individuals and improve glycemic control in some diabetics”.
